Consider one compound from article PMC5218480 (PLoS ONE, 2017).

For this assay, the system named is MV-4-11 cells. As to the kind of experiment: Gene expression microarray analysis (Affymetrix PrimeView) and GSEA. Format: cell-based, human. Also on record: RFU PODN (11730768_x_at) / Fold change /veh PODN (11730768_x_at) / RFU LINC00158 (11744669_a_at) / Fold change /veh LINC00158 (11744669_a_at) / RFU DUSP10 (11751237_a_at) / Fold change /veh DUSP10 (11751237_a_at) / RFU ID3 (11757404_x_at) / Fold change /veh ID3 (11757404_x_at) / RFU PLEKHG5 (11737974_s_at) / Fold change /veh PLEKHG5 (11737974_s_at) / RFU LRRC4B (11730491_at) / Fold change /veh LRRC4B (11730491_at) / RFU GIMAP4 (11747438_a_at) / Fold change /veh GIMAP4 (11747438_a_at) / RFU KRT8 (11758183_x_at) / Fold change /veh KRT8 (11758183_x_at) / RFU CNN1 (11734310_a_at) / Fold change /veh CNN1 (11734310_a_at) / RFU VPS37D (11726825_at) / Fold change /veh VPS37D (11726825_at) / RFU C10orf10 (11716522_x_at) / Fold change /veh C10orf10 (11716522_x_at) / RFU KIR2DL2 /// KIR2DL4 /// KIR2DL5A /// KIR2DL5B /// KIR2DS1 /// KIR2DS2 /// KIR2DS3 /// KIR2DS4 /// KIR3DL3 /// KIR3DL3 /// KIR3DS1 (11738374_at) / Fold change /veh KIR2DL2 /// KIR2DL4 /// KIR2DL5A /// KIR2DL5B /// KIR2DS1 /// KIR2DS2 /// KIR2DS3 /// KIR2DS4 /// KIR3DL3 /// KIR3DL3 /// KIR3DS1 (11738374_at) / RFU C1QL1 (11718748_at) / Fold change /veh C1QL1 (11718748_at) / RFU TMPRSS4 (11747572_a_at) / Fold change /veh TMPRSS4 (11747572_a_at) / RFU HAMP (11756126_x_at) / Fold change /veh HAMP (11756126_x_at) / RFU RNFT2 (11725882_a_at) / Fold change /veh RNFT2 (11725882_a_at) / RFU NR4A2 (11747474_a_at) / Fold change /veh NR4A2 (11747474_a_at) / RFU ABCC12 (11746883_a_at) / Fold change /veh ABCC12 (11746883_a_at) / RFU TMEM136 (11760407_x_at) / Fold change /veh TMEM136 (11760407_x_at) / RFU CLDN22 /// WWC2 (11732394_at) / Fold change /veh CLDN22 /// WWC2 (11732394_at) / RFU HLA-DPB1 (11760878_x_at) / Fold change /veh HLA-DPB1 (11760878_x_at) / RFU SPINT1 (11716480_a_at) / Fold change /veh SPINT1 (11716480_a_at) / RFU GAP43 (11754022_s_at) / Fold change /veh GAP43 (11754022_s_at) / RFU A4GNT (11735810_at) / Fold change /veh A4GNT (11735810_at) / RFU PRB3 (11715151_x_at) / Fold change /veh PRB3 (11715151_x_at) / RFU TUBB4B (11761932_at) / Fold change /veh TUBB4B (11761932_at) / RFU CAPN14 (11732068_a_at) / Fold change /veh CAPN14 (11732068_a_at) / RFU TMCC2 (11721928_a_at) / Fold change /veh TMCC2 (11721928_a_at) / RFU IRGQ (11745062_a_at) / Fold change /veh IRGQ (11745062_a_at) / RFU FAM174B (11720279_a_at) / Fold change /veh FAM174B (11720279_a_at) / RFU TMPRSS4 (11748680_a_at) / Fold change /veh TMPRSS4 (11748680_a_at) / RFU FAM212B (11763350_a_at) / Fold change /veh FAM212B (11763350_a_at) / RFU PLEKHG5 (11743358_a_at) / Fold change /veh PLEKHG5 (11743358_a_at) / RFU ZSCAN30 (11745921_a_at) / Fold change /veh ZSCAN30 (11745921_a_at) / RFU CMKLR1 (11741424_a_at) / Fold change /veh CMKLR1 (11741424_a_at) / RFU LOC101060620 /// MAPK8IP1 (11723275_at) / Fold change /veh LOC101060620 /// MAPK8IP1 (11723275_at) / RFU SPTSSB (11747773_x_at) / Fold change /veh SPTSSB (11747773_x_at) / RFU PRSS12 (11739890_at) / Fold change /veh PRSS12 (11739890_at) / RFU BIN1 (11741810_x_at) / Fold change /veh BIN1 (11741810_x_at) / RFU WNT11 (11732464_a_at) / Fold change /veh WNT11 (11732464_a_at) / RFU C10orf10 (11716521_a_at) / Fold change /veh C10orf10 (11716521_a_at) / RFU C5orf56 (11738089_at) / Fold change /veh C5orf56 (11738089_at) / RFU CYB561 (11721691_x_at) / Fold change /veh CYB561 (11721691_x_at) / RFU ANKRD19P (11752326_a_at) / Fold change /veh ANKRD19P (11752326_a_at) / RFU OR2T12 /// OR2T33 /// OR2T8 (11738714_s_at) / Fold change /veh OR2T12 /// OR2T33 /// OR2T8 (11738714_s_at) / RFU VCAN (11748164_a_at) / Fold change /veh VCAN (11748164_a_at) / RFU JSRP1 (11732532_at) / Fold change /veh JSRP1 (11732532_at) / RFU KRTAP10-11 (11738290_x_at) / Fold change /veh KRTAP10-11 (11738290_x_at) / RFU MYO3A (11730013_a_at) / Fold change /veh MYO3A (11730013_a_at) / RFU EBF3 (11725865_a_at) / Fold change /veh EBF3 (11725865_a_at) / RFU CAMK2N1 (11719241_x_at) / Fold change /veh CAMK2N1 (11719241_x_at) / RFU C5orf56 (11738088_a_at) / Fold change /veh C5orf56 (11738088_a_at) / RFU OLFML3 (11715873_a_at) / Fold change /veh OLFML3 (11715873_a_at) / RFU LOC100653217 /// NTM (11731650_a_at) / Fold change /veh LOC100653217 /// NTM (11731650_a_at) / RFU MAPK11 (11762145_a_at) / Fold change /veh MAPK11 (11762145_a_at) / RFU FIZ1 (11724087_x_at) / Fold change /veh FIZ1 (11724087_x_at) / RFU OASL (11726364_x_at) / Fold change /veh OASL (11726364_x_at) / RFU SOX15 (11748057_x_at) / Fold change /veh SOX15 (11748057_x_at) / RFU CD79A (11719716_a_at) / Fold change /veh CD79A (11719716_a_at) / RFU HIST1H1D (11736915_at) / Fold change /veh HIST1H1D (11736915_at) / RFU CASKIN2 (11723855_a_at) / Fold change /veh CASKIN2 (11723855_a_at) / RFU LOC730098 (11760151_x_at) / Fold change /veh LOC730098 (11760151_x_at) / RFU OR4N2 (11742367_at) / Fold change /veh OR4N2 (11742367_at) / RFU PRRT2 (11749266_a_at) / Fold change /veh PRRT2 (11749266_a_at) / RFU SNX32 (11753110_a_at) / Fold change /veh SNX32 (11753110_a_at) / RFU CDHR5 (11726645_a_at) / Fold change /veh CDHR5 (11726645_a_at) / RFU RCAN1 (11760418_a_at) / Fold change /veh RCAN1 (11760418_a_at) / RFU FAM167A (11723789_a_at) / Fold change /veh FAM167A (11723789_a_at) / RFU FAM26E (11764081_at) / Fold change /veh FAM26E (11764081_at) / RFU ISYNA1 (11749810_s_at) / Fold change /veh ISYNA1 (11749810_s_at) / RFU ACY1 (11761880_at) / Fold change /veh ACY1 (11761880_at) / RFU 11764098_at / Fold change /veh 11764098_at / RFU SAMD14 (11745864_x_at) / Fold change /veh SAMD14 (11745864_x_at) / RFU NPB (11741838_a_at) / Fold change /veh NPB (11741838_a_at) / RFU TMPRSS6 (11731388_a_at) / Fold change /veh TMPRSS6 (11731388_a_at) / RFU KRTAP10-2 (11738614_at) / Fold change /veh KRTAP10-2 (11738614_at) / RFU ARHGAP8 /// PRR5-ARHGAP8 (11727945_x_at) / Fold change /veh ARHGAP8 /// PRR5-ARHGAP8 (11727945_x_at) / RFU KRTAP5-7 /// NADSYN1 (11734609_at) / Fold change /veh KRTAP5-7 /// NADSYN1 (11734609_at) / RFU RASL12 (11751679_a_at) / Fold change /veh RASL12 (11751679_a_at) / RFU CDKN2B (11736163_a_at) / Fold change /veh CDKN2B (11736163_a_at) / RFU PRF1 (11729649_at) / Fold change /veh PRF1 (11729649_at) / RFU, ZNF638 /// ZNF638-IT1 / Fold change vs veh, ZNF638 /// ZNF638-IT1 / RFU, PANK3 / Fold change vs veh, PANK3 / RFU, SH3YL1 / Fold change vs veh, SH3YL1 / RFU, ZEB2 / Fold change vs veh, ZEB2 / RFU, NRIP1 / Fold change vs veh, NRIP1 / RFU, PTTG1IP / Fold change vs veh, PTTG1IP / RFU, CAPN2 / Fold change vs veh, CAPN2 / RFU, MED14 / Fold change vs veh, MED14 / RFU, SNORA58 / Fold change vs veh, SNORA58 / RFU, C1orf63 / Fold change vs veh, C1orf63 / RFU, LRRFIP1 / Fold change vs veh, LRRFIP1 / RFU, NDUFAF7 / Fold change vs veh, NDUFAF7 / RFU, SLC12A2 / Fold change vs veh, SLC12A2 / RFU, IBTK / Fold change vs veh, IBTK / RFU, ESF1 / Fold change vs veh, ESF1 / Fold change vs veh, TMEM50B / RFU, TAOK1 / Fold change vs veh, TAOK1 / RFU, ACBD3 / Fold change vs veh, ACBD3 / RFU, TMA16 / Fold change vs veh, TMA16 / RFU, RWDD3 / Fold change vs veh, RWDD3 / RFU, BCAT1 / Fold change vs veh, BCAT1 / RFU, EDEM3 / Fold change vs veh, EDEM3 / RFU, TMEM33 / Fold change vs veh, TMEM33 / RFU, WDR75 / Fold change vs veh, WDR75 / RFU, AHCTF1 / Fold change vs veh, AHCTF1 / RFU, TFRC / Fold change vs veh, TFRC / RFU, ZDHHC17 / Fold change vs veh, ZDHHC17 / RFU, NOM1 / Fold change vs veh, NOM1 / RFU, ARL8B / Fold change vs veh, ARL8B / RFU, ZBTB11 / Fold change vs veh, ZBTB11 / RFU, TAMM41 / Fold change vs veh, TAMM41 / RFU, KIAA1704 /// LOC100996395 / Fold change vs veh, KIAA1704 /// LOC100996395 / RFU, ING1 / Fold change vs veh, ING1 / RFU, TRMT61B / Fold change vs veh, TRMT61B / RFU, FUBP3 / Fold change vs veh, FUBP3 / RFU, TP53 / Fold change vs veh, TP53 / RFU, TNKS2 / Fold change vs veh, TNKS2 / RFU, ZFP14 / Fold change vs veh, ZFP14 / RFU, ACTR2 / Fold change vs veh, ACTR2 / RFU, PPP3R1 / Fold change vs veh, PPP3R1 / RFU, PIK3R1 / Fold change vs veh, PIK3R1 / RFU, HNRNPA1 / Fold change vs veh, HNRNPA1 / RFU, RNF170 / Fold change vs veh, RNF170 / RFU, ZNF28 / Fold change vs veh, ZNF28 / RFU, RNGTT / Fold change vs veh, RNGTT / RFU, OGT / Fold change vs veh, OGT / RFU, BRD1 / Fold change vs veh, BRD1 / RFU, MARS / Fold change vs veh, MARS / RFU, ZNF655 / Fold change vs veh, ZNF655 / RFU, FAHD1 / Fold change vs veh, FAHD1 / RFU, BDP1 / Fold change vs veh, BDP1 / RFU, LRRCC1 / Fold change vs veh, LRRCC1 / RFU, ARID1A / Fold change vs veh, ARID1A / RFU, ZNF146 / Fold change vs veh, ZNF146 / RFU, ZNF330 / Fold change vs veh, ZNF330 / RFU, GPN3 / Fold change vs veh, GPN3 / RFU, C9orf123 / Fold change vs veh, C9orf123 / RFU, N4BP2L2 / Fold change vs veh, N4BP2L2 / RFU, ARFIP1 / Fold change vs veh, ARFIP1 / RFU, FAM179B / Fold change vs veh, FAM179B / RFU, BCL10 / Fold change vs veh, BCL10 / RFU, UHRF1BP1L / Fold change vs veh, UHRF1BP1L / RFU, BET1 / Fold change vs veh, BET1 / RFU, CNOT2 / Fold change vs veh, CNOT2 / RFU, ZNF268 / Fold change vs veh, ZNF268 / Fold change vs veh, ZNF507 / RFU, DGCR2 / Fold change vs veh, DGCR2 / RFU, WDSUB1 / Fold change vs veh, WDSUB1 / Fold change vs veh, HSP90B1 /// MIR3652 / RFU, ADSS / Fold change vs veh, ADSS / RFU, GK / Fold change vs veh, GK / RFU, ZNF148 / Fold change vs veh, ZNF148 / RFU, TAF9 / Fold change vs veh, TAF9 / RFU, SLC1A5 / Fold change vs veh, SLC1A5 / RFU, SLMO2 / Fold change vs veh, SLMO2 / RFU, ABCC4 / Fold change vs veh, ABCC4 / RFU, LOC101060439 /// RAP1B / Fold change vs veh, LOC101060439 /// RAP1B / RFU, RFX7 / Fold change vs veh, RFX7 / RFU, GTPBP10 / Fold change vs veh, GTPBP10 / RFU, CNEP1R1 / Fold change vs veh, CNEP1R1 / RFU, BIVM-ERCC5 /// ERCC5 / Fold change vs veh, BIVM-ERCC5 /// ERCC5 / RFU, ILF3 / Fold change vs veh, ILF3 / RFU 11762660_at / Fold change /veh 11762660_at / RFU VCAN (11757783_s_at) / Fold change /veh VCAN (11757783_s_at) / RFU DDX43 (11728927_at) / Fold change /veh DDX43 (11728927_at) / RFU KRT8 (11758188_x_at) / Fold change /veh KRT8 (11758188_x_at) / RFU NKD1 (11759106_at) / Fold change /veh NKD1 (11759106_at) / RFU SRD5A1 (11742802_a_at) / Fold change /veh SRD5A1 (11742802_a_at) / RFU TPSAB1 /// TPSB2 (11721975_s_at) / Fold change /veh TPSAB1 /// TPSB2 (11721975_s_at) / RFU GSTM3 (11746129_a_at) / Fold change /veh GSTM3 (11746129_a_at) / RFU IL23R (11737362_x_at) / Fold change /veh IL23R (11737362_x_at) / RFU TMEM51 (11727254_a_at) / Fold change /veh TMEM51 (11727254_a_at) / RFU PIWIL2 (11732686_x_at) / Fold change /veh PIWIL2 (11732686_x_at) / RFU ORM1 (11744905_x_at) / Fold change /veh ORM1 (11744905_x_at) / RFU CCDC152 (11743942_at) / Fold change /veh CCDC152 (11743942_at) / RFU ECM1 (11717891_a_at) / Fold change /veh ECM1 (11717891_a_at) / RFU IL23R (11748794_a_at) / Fold change /veh IL23R (11748794_a_at) / RFU TNFAIP8L3 (11732012_x_at) / Fold change /veh TNFAIP8L3 (11732012_x_at) / RFU MBOAT4 (11741988_at) / Fold change /veh MBOAT4 (11741988_at) / RFU 11764193_at / Fold change /veh 11764193_at / RFU TMEM53 (11763286_at) / Fold change /veh TMEM53 (11763286_at) / RFU MAGEB2 (11727129_at) / Fold change /veh MAGEB2 (11727129_at) / RFU TMEM200A (11744735_a_at) / Fold change /veh TMEM200A (11744735_a_at) / RFU CCDC152 (11751479_a_at) / Fold change /veh CCDC152 (11751479_a_at) / RFU FAM211A (11726209_a_at) / Fold change /veh FAM211A (11726209_a_at) / RFU RGS16 (11746705_a_at) / Fold change /veh RGS16 (11746705_a_at) / RFU VCAN (11755009_s_at) / Fold change /veh VCAN (11755009_s_at) / RFU RHOB (11743442_s_at) / Fold change /veh RHOB (11743442_s_at) / RFU RGS16 (11720943_a_at) / Fold change /veh RGS16 (11720943_a_at) / RFU RGS16 (11720944_at) / Fold change /veh RGS16 (11720944_at) / RFU, VPS4B / Fold change vs veh, VPS4B / RFU, CREB1 / Fold change vs veh, CREB1 / RFU, DNAJC13 / Fold change vs veh, DNAJC13 / RFU, GNAQ / Fold change vs veh, GNAQ / RFU, CDK5R1 / Fold change vs veh, CDK5R1 / RFU, ZRANB3 / Fold change vs veh, ZRANB3 / RFU, CUL4A / Fold change vs veh, CUL4A / RFU, CCNY / Fold change vs veh, CCNY / RFU, UFL1 / Fold change vs veh, UFL1 / RFU, COG3 / Fold change vs veh, COG3 / RFU, DIAPH2 / Fold change vs veh, DIAPH2 / RFU, SKA2 / Fold change vs veh, SKA2 / RFU, AFF3 / Fold change vs veh, AFF3 / RFU, LMF1 / Fold change vs veh, LMF1 / RFU, IPO11 / Fold change vs veh, IPO11 / RFU, DFFB / Fold change vs veh, DFFB / RFU, FOXP1 / Fold change vs veh, FOXP1 / RFU, CARD8 / Fold change vs veh, CARD8 / RFU, STRN3 / Fold change vs veh, STRN3 / RFU, ADK / Fold change vs veh, ADK / RFU, RASSF2 / Fold change vs veh, RASSF2 / RFU, WIPF1 / Fold change vs veh, WIPF1 / RFU, LARP1B / Fold change vs veh, LARP1B / RFU, RASA1 / Fold change vs veh, RASA1 / RFU, RB1 / Fold change vs veh, RB1 / RFU, PPFIA1 / Fold change vs veh, PPFIA1 / RFU, MAT2A / Fold change vs veh, MAT2A / RFU, CCT5 / Fold change vs veh, CCT5 / RFU, WDR92 / Fold change vs veh, WDR92 / RFU, CUX1 / Fold change vs veh, CUX1 / RFU, TTC7A / Fold change vs veh, TTC7A / RFU, TMEM135 / Fold change vs veh, TMEM135 / RFU, DEPTOR / Fold change vs veh, DEPTOR / RFU, CPM / Fold change vs veh, CPM / RFU, DNAJB6 / Fold change vs veh, DNAJB6 / RFU, CACNA2D3 / Fold change vs veh, CACNA2D3 / RFU, DTX4 / Fold change vs veh, DTX4 / RFU, TFCP2 / Fold change vs veh, TFCP2 / RFU, GMCL1 /// GMCL1P1 / Fold change vs veh, GMCL1 /// GMCL1P1 / RFU, AEBP2 / Fold change vs veh, AEBP2 / RFU, SNHG1 /// SNORD22 /// SNORD25 /// SNORD26 /// SNORD27 /// SNORD28 /// SNORD29 /// SNORD31 / Fold change vs veh, SNHG1 /// SNORD22 /// SNORD25 /// SNORD26 /// SNORD27 /// SNORD28 /// SNORD29 /// SNORD31 / Fold change (Aza/veh), C12orf56 (ProbeSet 11735607_a_at) / Fold change (ACY-1035/veh), C12orf56 (ProbeSet 11735607_a_at) / Fold change (Aza/veh), FGFR1OP (ProbeSet 11751329_s_at) / Fold change (ACY-1035/veh), FGFR1OP (ProbeSet 11751329_s_at) / Fold change (Aza/veh), VPS36 (ProbeSet 11739960_a_at) / Fold change (ACY-1035/veh), VPS36 (ProbeSet 11739960_a_at) / RFU SYPL1 (11715823_x_at) / Fold change /veh SYPL1 (11715823_x_at) / RFU IGFBP7 (11715501_s_at) / Fold change /veh IGFBP7 (11715501_s_at) / RFU REEP3 (11722064_at) / Fold change /veh REEP3 (11722064_at) / RFU IGLL1 (11728026_x_at) / Fold change /veh IGLL1 (11728026_x_at): dose or concentration left out as unconfirmed. Conditions: MV-4-11 cells, 48 hours.

Structures are written as SMILES.

`Nc1ncn([C@@H]2O[C@H](CO)[C@@H](O)[C@H]2O)c(=O)n1` [azacitidine]: the “Fold change /veh IGLL1 (11728026_x_at)” value is on record as 0.66.
